{
  "source": "patent US20220267310A1",
  "about": "“QUINAZOLINE AND CINNOLINE DERIVATIVES AS DNA-PK INHIBITOR” (MEDSHINE DISCOVERY INC., priority 2019, published 2022)",
  "key": {"PI3K (p120γ)": {"target": "T1, PI3K (p120γ) (Homo sapiens, UniProt P48736)", "T1 construct": "Eurofins Pharma Discovery Service (contract assay)", "T1 sequence (P48736 whole entry, the tested form may be a part)": "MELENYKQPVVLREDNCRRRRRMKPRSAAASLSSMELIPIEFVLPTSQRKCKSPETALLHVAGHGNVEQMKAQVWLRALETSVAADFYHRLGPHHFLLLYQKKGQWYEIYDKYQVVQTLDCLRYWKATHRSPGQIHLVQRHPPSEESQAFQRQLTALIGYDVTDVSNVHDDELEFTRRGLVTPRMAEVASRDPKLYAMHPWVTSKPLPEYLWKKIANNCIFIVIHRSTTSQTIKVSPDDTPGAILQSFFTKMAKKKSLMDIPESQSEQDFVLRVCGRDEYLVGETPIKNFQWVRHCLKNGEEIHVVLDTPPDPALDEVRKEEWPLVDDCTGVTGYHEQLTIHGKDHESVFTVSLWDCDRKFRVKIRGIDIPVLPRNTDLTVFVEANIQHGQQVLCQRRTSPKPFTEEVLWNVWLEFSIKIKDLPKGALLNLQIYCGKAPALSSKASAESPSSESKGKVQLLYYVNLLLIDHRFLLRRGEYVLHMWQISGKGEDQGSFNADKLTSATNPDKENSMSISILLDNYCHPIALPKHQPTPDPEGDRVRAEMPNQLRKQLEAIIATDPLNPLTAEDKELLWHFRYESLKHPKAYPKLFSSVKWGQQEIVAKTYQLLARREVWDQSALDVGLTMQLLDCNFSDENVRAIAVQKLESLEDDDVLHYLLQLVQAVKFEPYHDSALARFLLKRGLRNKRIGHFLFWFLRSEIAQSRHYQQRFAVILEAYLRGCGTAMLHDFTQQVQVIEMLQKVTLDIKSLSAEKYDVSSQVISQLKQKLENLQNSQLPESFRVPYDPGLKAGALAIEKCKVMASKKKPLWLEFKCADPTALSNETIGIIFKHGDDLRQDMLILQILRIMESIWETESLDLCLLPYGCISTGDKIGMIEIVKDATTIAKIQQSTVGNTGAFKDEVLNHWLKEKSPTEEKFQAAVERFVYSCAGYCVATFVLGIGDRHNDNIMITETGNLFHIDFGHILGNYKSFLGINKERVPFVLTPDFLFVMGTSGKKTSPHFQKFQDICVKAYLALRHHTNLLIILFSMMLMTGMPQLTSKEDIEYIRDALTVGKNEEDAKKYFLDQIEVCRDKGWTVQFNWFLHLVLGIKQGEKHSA", "experiment": "PI3K (p120γ) kinase inhibitory activity (HTRF)", "type": "biochemical", "procedure": "(§1) This experiment was tested at Eurofins Pharma Discovery Service, Reaction Biology Corp. (RBC)\n(§2) […] DNA-PK: Mg/ATP; GST-cMyc-p53; EDTA; Ser15 antibody; ATP: 10 μM; biotinylated phosphatidylinositol-3,4,5-triphosphate; GST label GRP1 PH domain; streptavidin and phycocyanin; europium-labelled monoclonal antibody against GST.\n(§3) PI3K (p120γ) was incubated in a determination buffer containing phosphatidylinositol 4,5-diphosphate and Mg/ATP (density as required). The reaction was initiated by adding a mixture of Mg/ATP. After incubating at room temperature for 30 min, a termination solution containing EDTA and biotinylated phosphatidylinositol-3,4,5-triphosphate was added to terminate the reaction. Finally, a detection buffer (containing labeled anti-GST monoclonal antibody, PH domain of GRP1 with GST label and streptavidin and phycyanin and […]) was added. Then, the board was read in time-resolved fluorescence mode, and an HTRF signal was measured according to the formula HTRF=10000×(Em665 nm/Em620 nm)."}, "[1]": {"tested_on": "human head and neck cancer FaDu cell subcutaneous xenograft tumor", "experiment": "FaDu subcutaneous xenograft, mono and combination with radiotherapy", "type": "in vivo", "details": "for Tumor volume (mm^3), 3 days after administration: day 3; for Tumor volume (mm^3), 7 days after administration: day 7; for Tumor volume (mm^3), 10 days after administration: day 10; for Tumor volume (mm^3), 14 days after administration: day 14; for Tumor volume (mm^3), 17 days after administration: day 17; for Tumor volume (mm^3), 23 days after administration: day 23; for RTV (21th day) / T/C (%) (21th day) / TGI (%) (21th day) / Tumor volume (mm^3) (0th day) / Tumor volume (mm^3) (21th day): 50 mg/kg, PO", "procedure": "Experiment purpose: The antitumor activity of the tested compound was evaluated in a nude mouse model of human head and neck cancer FaDu cell subcutaneous xenograft tumor\nExperimental animals: Female BALB/c nude mice, 6-8 weeks old, weighing 17-23 grams; supplier: B&K Universal Group Limited\nHuman head and neck cancer FaDu cell (ATCC, Manassas. Virginiaite, item number: HTB-43) was cultured in vitro in a culture condition of EMEM medium with 10% fetal bovine serum, 100 U/mL penicillin and 100 μg/mL streptomycin, incubated at 37° C. and 5% CO2. Conventional digestive treatment passage was carried out using pancreatic enzyme—EDTA twice a week.\nEach mouse was subcutaneously inoculated with 0.1 mL ([…]) FaDu cells at the right dorsal position, and when the average tumor volume reaches about 106 mm^3, randomization was used for initiating drug administration.\nThe tested compound was prepared as a 5 mg/mL clarified solution with 10% DMSO+50% polyethylene glycol 400+40% water as the solvent. Preparation was conducted every three days.\nThe experimental indicators refers to study whether tumor growth was inhibited, delayed, or cured. Tumor diameter was measured twice a week with a vernier caliper. The calculation formula of the tumor volume was V=0.5a×b^2, and a and b represent the long diameter and short diameter of the tumor, respectively.\nThe antitumor efficacy of the compound was evaluated by TGI (%) or relative tumor proliferation rate T/C (%). TGI (%) reflects the tumor growth inhibition rate. The calculation of TGI (%): TGI (%)=[1−(average tumor volume at the end of administration of a certain treatment group−average tumor volume at the beginning of administration of the treatment group)/(average tumor volume at the end of treatment in solvent control group−average tumor volume at the beginning of treatment in solvent control group)]×control group.\nRelative tumor proliferation rate T/C (%): the calculation formula was as follows: T/C %=[…] TRTV/CRTV group (TRTV: treatment group RTV: CRTV: negative control group RTV). According to results of tumor measurement. Relative Tumor Volume (RTV) was calculated by the formula RTV=Vt/V0, where V0 was the average tumor volume measured in group administration (i.e., d0), and Vt was the average tumor volume measured in a certain single measurement. TRTV and CRTV collect data on the same day.\nStatistic analysis includes an average value and a standard error (SEM) of tumor volume at each time point for each group. […] If there was no significant difference in F value, Dunnet (2-sided) method was applied to analysis. All data were analyzed using SPSS 17.0. P<0.05 was considered as having a significant difference."}, "PI3K (p110β/p85α)": {"target": "T2, PI3K (p110β/p85α) (Homo sapiens, UniProt P42338)", "T2 construct": "Eurofins Pharma Discovery Service (contract assay)", "T2 sequence (P42338 whole entry, species assumed)": "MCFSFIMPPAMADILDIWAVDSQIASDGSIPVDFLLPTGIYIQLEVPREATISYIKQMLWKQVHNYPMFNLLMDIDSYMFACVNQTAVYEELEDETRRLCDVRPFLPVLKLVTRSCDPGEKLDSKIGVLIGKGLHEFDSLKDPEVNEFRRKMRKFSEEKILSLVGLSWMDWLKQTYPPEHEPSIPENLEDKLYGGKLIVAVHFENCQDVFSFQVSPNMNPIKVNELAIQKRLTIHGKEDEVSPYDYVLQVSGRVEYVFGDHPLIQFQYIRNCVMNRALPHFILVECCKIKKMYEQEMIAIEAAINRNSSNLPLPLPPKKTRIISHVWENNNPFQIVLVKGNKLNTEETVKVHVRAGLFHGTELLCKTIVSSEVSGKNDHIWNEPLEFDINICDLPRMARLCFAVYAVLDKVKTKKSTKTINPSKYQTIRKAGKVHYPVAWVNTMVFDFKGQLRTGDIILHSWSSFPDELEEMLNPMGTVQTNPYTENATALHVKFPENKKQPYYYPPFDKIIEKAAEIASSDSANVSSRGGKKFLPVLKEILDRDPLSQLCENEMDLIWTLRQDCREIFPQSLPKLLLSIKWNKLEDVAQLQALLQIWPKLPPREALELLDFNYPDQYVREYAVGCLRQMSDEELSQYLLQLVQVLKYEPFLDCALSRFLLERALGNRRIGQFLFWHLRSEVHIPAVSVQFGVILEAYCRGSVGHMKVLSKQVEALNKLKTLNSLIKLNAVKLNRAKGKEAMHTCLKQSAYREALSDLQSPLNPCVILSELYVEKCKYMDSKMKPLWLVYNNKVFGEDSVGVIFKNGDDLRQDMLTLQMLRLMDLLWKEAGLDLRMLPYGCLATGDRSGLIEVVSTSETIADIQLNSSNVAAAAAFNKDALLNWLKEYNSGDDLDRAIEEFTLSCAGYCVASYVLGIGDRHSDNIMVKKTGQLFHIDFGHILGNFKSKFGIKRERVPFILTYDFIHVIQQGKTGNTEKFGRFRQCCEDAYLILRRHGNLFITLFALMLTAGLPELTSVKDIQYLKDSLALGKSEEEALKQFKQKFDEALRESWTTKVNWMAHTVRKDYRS", "T2 sequence (P27986 whole entry partner, species assumed)": "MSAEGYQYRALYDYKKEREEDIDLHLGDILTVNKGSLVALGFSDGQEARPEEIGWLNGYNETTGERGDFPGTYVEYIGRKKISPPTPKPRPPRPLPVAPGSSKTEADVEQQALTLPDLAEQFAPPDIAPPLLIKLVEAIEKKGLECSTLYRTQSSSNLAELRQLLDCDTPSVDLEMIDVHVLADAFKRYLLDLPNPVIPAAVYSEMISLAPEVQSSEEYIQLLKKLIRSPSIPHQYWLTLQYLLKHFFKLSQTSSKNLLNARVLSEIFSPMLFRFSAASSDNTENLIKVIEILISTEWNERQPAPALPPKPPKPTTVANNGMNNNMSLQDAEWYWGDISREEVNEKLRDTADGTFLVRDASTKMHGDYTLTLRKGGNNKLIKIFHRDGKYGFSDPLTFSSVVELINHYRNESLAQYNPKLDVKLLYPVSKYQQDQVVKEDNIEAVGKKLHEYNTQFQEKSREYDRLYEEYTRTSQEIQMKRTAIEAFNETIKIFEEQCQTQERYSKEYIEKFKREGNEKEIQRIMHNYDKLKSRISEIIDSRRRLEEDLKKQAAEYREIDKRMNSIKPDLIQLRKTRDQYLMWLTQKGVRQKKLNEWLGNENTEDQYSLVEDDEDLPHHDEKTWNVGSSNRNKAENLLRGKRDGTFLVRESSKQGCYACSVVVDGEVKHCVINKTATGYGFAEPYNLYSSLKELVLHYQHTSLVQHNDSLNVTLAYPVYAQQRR", "experiment": "PI3K (p110β/p85α) kinase inhibitory activity (HTRF)", "type": "biochemical", "procedure": "as §1, §2\nas §3, with “(p110β/p85α)” for “(p120γ)”, “phosphatidylinositol-3,4, 5-triphosphate” for “phosphatidylinositol-3,4,5-triphosphate”"}, "[2]": {"details": "50 mg/kg + 2 Gy, average ± SEM, n = 8"}, "[3]": {"details": "50 mg/kg alone, average ± SEM, n = 8"}, "[4]": {"details": "QD, alone, average ± SEM, n = 8"}},
  "data": [
    {"smiles": "COc1ccc([C@@H](O)c2cc(-c3nncc4cc(N5CCOCC5)ccc34)c(F)cc2Cl)nn1", "note": "[Embodiment M3814, reference compound]", "values": [
      {"measurement": "IC50", "setting": "PI3K (p120γ)", "value": 1220, "unit": "nM"},
      {"measurement": "Tumor volume (mm^3), 3 days after administration", "setting": "[1]; [2]", "value": "168 ± 10", "unit": "mm^3"},
      {"measurement": "Tumor volume (mm^3), 7 days after administration", "setting": "[1]; [2]", "value": "106 ± 19", "unit": "mm^3"},
      {"measurement": "Tumor volume (mm^3), 10 days after administration", "setting": "[1]; [2]", "value": "68 ± 16", "unit": "mm^3"},
      {"measurement": "Tumor volume (mm^3), 14 days after administration", "setting": "[1]; [2]", "value": "25 ± 9", "unit": "mm^3"},
      {"measurement": "Tumor volume (mm^3), 17 days after administration", "setting": "[1]; [2]", "value": "12 ± 4", "unit": "mm^3"},
      {"measurement": "Tumor volume (mm^3), 23 days after administration", "setting": "[1]; [2]", "value": "1 ± 1", "unit": "mm^3"},
      {"measurement": "Tumor volume (mm^3), 28 days after administration", "setting": "[1]; 50 mg/kg + 2 Gy, day 28, average ± SEM, n = 8", "value": "1 ± 1", "unit": "mm^3"},
      {"measurement": "Tumor volume (mm^3), 31 days after administration", "setting": "[1]; 50 mg/kg + 2 Gy, day 31, average ± SEM, n = 8", "value": "0 ± 0", "unit": "mm^3"},
      {"measurement": "Tumor volume (mm^3), 35 days after administration", "setting": "[1]; 50 mg/kg + 2 Gy, day 35, average ± SEM, n = 8", "value": "0 ± 0", "unit": "mm^3"},
      {"measurement": "Tumor volume (mm^3), 42 days after administration", "setting": "[1]; 50 mg/kg + 2 Gy, day 42, average ± SEM, n = 8", "value": "0 ± 0", "unit": "mm^3"},
      {"measurement": "Tumor volume (mm^3), 49 days after administration", "setting": "[1]; 50 mg/kg + 2 Gy, day 49, average ± SEM, n = 8", "value": "0 ± 0", "unit": "mm^3"},
      {"measurement": "Tumor volume (mm^3), 56 days after administration", "setting": "[1]; 50 mg/kg + 2 Gy, day 56, average ± SEM, n = 8", "value": "0 ± 0", "unit": "mm^3"},
      {"measurement": "Tumor volume (mm^3), 63 days after administration", "setting": "[1]; 50 mg/kg + 2 Gy, day 63, average ± SEM, n = 8", "value": "0 ± 0", "unit": "mm^3"},
      {"measurement": "Tumor volume (mm^3), 70 days after administration", "setting": "[1]; 50 mg/kg + 2 Gy, day 70, average ± SEM, n = 8", "value": "0 ± 0", "unit": "mm^3"},
      {"measurement": "animal death or euthanasia during the study", "setting": "[1]; 50 mg/kg alone, one animal of the group", "value": "found dead on day 23 after group administration"},
      {"measurement": "Tumor volume (mm^3), 3 days after administration", "setting": "[1]; [3]", "value": "167 ± 20", "unit": "mm^3"},
      {"measurement": "Tumor volume (mm^3), 7 days after administration", "setting": "[1]; [3]", "value": "322 ± 35", "unit": "mm^3"},
      {"measurement": "Tumor volume (mm^3), 10 days after administration", "setting": "[1]; [3]", "value": "502 ± 48", "unit": "mm^3"},
      {"measurement": "Tumor volume (mm^3), 14 days after administration", "setting": "[1]; [3]", "value": "752 ± 64", "unit": "mm^3"},
      {"measurement": "Tumor volume (mm^3), 17 days after administration", "setting": "[1]; [3]", "value": "997 ± 109", "unit": "mm^3"},
      {"measurement": "Tumor volume (mm^3), 23 days after administration", "setting": "[1]; [3]", "value": "1831 ± 254", "unit": "mm^3"},
      {"measurement": "RTV (21th day)", "setting": "[1]; QD + radiotherapy 2 Gy", "value": "0.03 ± 0.02"},
      {"measurement": "T/C (%) (21th day)", "setting": "[1]; QD + radiotherapy 2 Gy", "value": 0.24, "unit": "%"},
      {"measurement": "TGI (%) (21th day)", "setting": "[1]; QD + radiotherapy 2 Gy", "value": 108.46, "unit": "%"},
      {"measurement": "Tumor volume (mm^3) (0th day)", "setting": "[1]; QD + radiotherapy 2 Gy, 5-day radiotherapy, 2-day withdrawal, average ± SEM, n = 8", "value": "106 ± 5", "unit": "mm^3"},
      {"measurement": "Tumor volume (mm^3) (21th day)", "setting": "[1]; QD + radiotherapy 2 Gy, average ± SEM, n = 8", "value": "3 ± 2", "unit": "mm^3"},
      {"measurement": "RTV (21th day)", "setting": "[1]; QD, alone", "value": "12.35 ± 1.10"},
      {"measurement": "T/C (%) (21th day)", "setting": "[1]; QD, alone", "value": 99.60, "unit": "%"},
      {"measurement": "TGI (%) (21th day)", "setting": "[1]; QD, alone", "value": "−0.43", "unit": "%"},
      {"measurement": "Tumor volume (mm^3) (0th day)", "setting": "[1]; [4]", "value": "106 ± 5", "unit": "mm^3"},
      {"measurement": "Tumor volume (mm^3) (21th day)", "setting": "[1]; [4]", "value": "1320 ± 174", "unit": "mm^3"},
      {"measurement": "IC50", "setting": "PI3K (p110β/p85α)", "value": 33, "unit": "nM"}
    ]}
  ]
}
